Measurements: patent US10245249B2, “Pharmaceutical compositions comprising nitroxyl donors” (Cardioxyl Pharmaceuticals, Inc., priority 2013, dated 2019)

How the values were obtained:
dogs = assay: Canine implanted central catheter 72 hour continuous infusion model (clinical and microscopic pathology of vasculature); type: in vivo; conditions: for NOAEL (μg/kg/min) (molar equivalent to CXL-1020): based on microscopic pathology markers (edema, hemorrhage, vascular and perivascular inflammation); for toxicological profile relative to CXL-1020: microscopic pathology, Table 8
Experimental: To determine the cause of the inflammation and hind limb swelling, a series of 72-hour continuous infusion investigative studies were conducted over the following 6 months. […] The first site of inflammation, the catheter insertion site, caused the dog hind limb swelling and inflammation observed in the early-terminated follow-up study. Increasing infusate pH from 4 to 6 decreased inflammation, improving the inflammatory profile by approximately 3-fold (see FIG. 4).
Confirmation of this was obtained through evaluating the nitroxyl donors through detailed histopathology of the vasculature at the site of insertion of into the femoral vein (15 cm distal to the catheter tip), along the catheter track to the catheter tip, and past the tip downstream 20 cm.
A composite score was calculated from the sum of these findings scores. In FIG. 3, the cumulative histology composite score ranges from 0-2 (low severity) to 11-12 (high severity). […] The NOAEL values determined based on these microscopic pathology markers for a series of nitroxyl donors, expressed in molar equivalent dose rates (μg/kg/min) to CXL-1020, are provided in Table 8.

[1] = HNO production determined via N2O quantification (GC headspace analysis); type: physicochemical; conditions: PBS, 37° C.
How it was run: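 Compounds dissolved in argon-purged anhydrous DMF were added to argon-purged PBS in sealed vials at 37° C for the set incubation time; headspace N2O was measured by GC with micro-ECD. N2O gas and CXL-1020 served as standards, and relative N2O yield (%) was calculated per incubation time.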

Compound | NOAEL (μg/kg/min) (molar equivalent to CXL-1020) (dogs) | toxicological profile relative to CXL-1020 (dogs) | Relative N2O Yield (90 minutes incubation) [1] | Relative N2O Yield (360 minutes incubation) [1] | findings around catheter insertion site, at catheter tip and downstream (dogs; 72-hour infusion, dogs) | dose rates at which significant undesirable side effects were still demonstrated (dogs; infusate pH 6, dogs) | dose rates causing clinical pathology changes consistent with an inflammatory process (dogs; pH 4 formulation, 1:1 molar CXL-1020:CAPTISOL, diluted in 5% dextrose, 72-hour infusion, dogs)
O=S(=O)(NO)c1ccco1 [Compound 83, N-Hydroxyfuran-2-sulfonamide] | ≥90 µg/kg/min | substantially improved toxicological profile relative to CXL-1020 | 42% | 86% | – | – | –
Cc1ccc(S(=O)(=O)NO)o1 [Compound 1, N-Hydroxy-5-methylfuran-2-sulfonamide] | ≥180 µg/kg/min | – | 52% | – | – | – | –
Cc1ccc(S(=O)(=O)NO)s1 [Compound 84, N-Hydroxy-5-methylthiophene-2-sulfonamide] | ≥60 µg/kg/min | substantially improved toxicological profile relative to CXL-1020 | 52% | 67% | – | – | –
Cn1ccc(S(=O)(=O)NO)n1 [Compound 85, N-Hydroxy-1-methyl-1H-pyrazole-3-sulfonamide] | ≥180 µg/kg/min | substantially improved toxicological profile relative to CXL-1020 | 33.5% | – | – | – | –
CS(=O)(=O)c1cccc(S(=O)(=O)NO)c1 [Compound 2, N-Hydroxy-3-methanesulfonylbenzene-1-sulfonamide] | ≥180 µg/kg/min | – | 82% | 94% | – | – | –
CS(=O)(=O)c1ccccc1S(=O)(=O)NO [CXL-1020, N-hydroxy-2-methanesulfonylbenzene-1-sulfonamide, reference compound] | <3 µg/kg/min | – | – | – | Vascular inflammation | greater than or equal to 3 μg/kg/min | greater than or equal to 0.03 μg/kg/min
